According to article PMC10385664, “Projection of Target Drug Particle Size in Oral Formulations Using the Refined Developability Classification System (rDCS)” (Pharmaceutics, 2023):
Converted amounts (≈) assume the structure as drawn. Where two headings read alike, the source gives them in different places.

Legend:
[1] = Shake-flask equilibrium solubility in FaSSIF V1; assay type: physicochemical; settings: for solubility thermodynamic at 24 h: pH 6.5, thermodynamic from solid, FaSSIF V1, pH 6.50 ± 0.05, 37 °C, read-out: CS FaSSIF V1 (thermodynamic solubility)
Experimental: Equilibrium solubilities of the three APIs in FaSSIF V1 were measured with the shake-flask method, following the ICH M9 guideline on BCS-based biowaivers. Briefly, an excess amount of each API was weighed into a 5 mL vial and the assay medium (FaSSIF V1) was added. The resulting suspensions were incubated at 37.0 ± 0.5 °C (Memmert Incubator IN750, Memmert GmbH + Co. KG, Schwabach, Germany) and agitated for 24 h at 25 rpm (LABINCO LD76 Digital Rotary Mixer, Labinco BV, Breda, The Netherlands). At 2, 4, 6 and 24 h, samples were drawn and filtered through Acrodisc 13 mm with 0.45 µm PTFE filters (Pall Corporation, Port Washington, NY, USA) after establishing that adsorption of the APIs onto the filters was less than 5%. Before sampling, the suspensions were checked visually for the presence of solid particles and the pH was measured (Metrohm 780 pH Meter, Metrohm AG, Herisau, Switzerland). All measured pH values were within the specified range of pH 6.50 ± 0.05, so no pH adjustment was necessary. The filtrates were diluted with a 1:1 mixture of ACN and Milli-Q water for analysis using ultra-performance liquid chromatography with UV detection (UPLC-UV).
XRPD patterns of the residual solids were compared to the starting material and literature profiles. A differential scanning calorimetry (DSC) analysis of the input materials was additionally performed. Istradefylline samples were protected from light in all studies using amber vials and aluminum foil to prevent photolysis. The experimental details of the UPLC-UV methods and solid state analyses can be found in Supplementary Materials.
The solubility experiments were performed in triplicate (n = 3) and solubilities are presented as means (± SD). The mean values were used as input for the rDCS and rtarget calculations.
S.2.4. rDCS Standard Investigations: Solubility Studies
Samples from the solubility studies were analyzed with UPLC‐UV analysis. For voriconazole and lemborexant a Waters Acquity UPLC System consisting of a sample manager, a binary solvent manager, and a PDA detector was used (Waters Corporation, Milford, USA). For istradefylline a Waters Acquity UPLC H‐Class System consisting of a sample manager, a quarternary solvent manager, and a PDA detector was used (Waters Corporation, Milford, MA , USA). The chromatograms were recorded and processed using the software Empower® version 3.0. Representative chromatograms for each API are shown in […]
the FaSSIF V1 solubility study were collected and examined using X‐ray powder diffraction (XRPD) analysis to detect solution‐mediated solid state changes. After 24 h, 1 to 5 mg of the residual solid was collected, pl aced on a zero‐background holder and allowed to sit at room temperature for 2 h. […]

[2] = Theoretical IDR from the Levich equation with solubility as input; settings: FaSSIF V1
From the text: Dissolution/Transit Balance: Derivation of kdiss based on Intrinsic Dissolution Rate In addition to Equation (S1) (utilizing hdisk and Adisk ra ther than hparticle and Apowder), the Levich equation (Equation (S12)) [11] applies for the dissolution from a rotating disk with a constant surface area under sink conditions and the assumption of convective diffusion without reaction as dissolution mechanism:
where IDR is the intrinsic dissolution rate, D is the diffusion coefficient, ν is the kinematic viscosit y, ω is the rotational velocity and CS is the thermodynamic solubility. The equation can be rewritten to estimate the IDR using the rotational speed of the compressed disk in revolutions per minut e (Equation (S13Error!
For this, a unit conversion factor of 30/π must be applied for the conversion of ω in rad∙s–1 to revolutions per minut e (RPM) in min‐1.
The dissolution rate from the disk surface can be calculated via multiplication of the IDR by the disk surface area Adisk (Equation (S14)):
Equation (S1) (adjusted to the dissolution from a disk surface) and Equation (S14) (Levich equation) were equated to obtain Equation (S15).
Rearrangement of Equation (S15) for hdisk results in an equation for the thickness of the aqueous boundary layer (ABL) of the rotating disk (hdisk) under sink conditions (Equation (S16)): […]

[3] = rDCS standard investigations: D/S ratio, SLAD and rDCS classification
Experimental: rDCS analysis was performed as described by Rosenberger et al.. […] The An can be calculated according to Equation (30):(30) An=DF·Peff/Rsi·Tsi
The rDCS classification according to the standard investigations was based on the D/S ratios, Peff and SLAD.

[4] = rDCS dissolution rate analysis (kdiss vs kperm) by Rosenberger et al.; settings: for kdiss: based on IDR, standard particle size 100 µm
From the text: Rosenberger et al. published an equation for kdiss based on the intrinsic dissolution rate (IDR) rather than CS (Equation (9)). Applying the hparticle assumption for larger particles with r0 ≥ 30 µm (hparticle = 30 µm) results in Equation (10). (9) kdiss=kIDR·IDR=3·hdisk/r0^2·ρ·IDR(r0<30 µm, hparticle=r0) (10) kdiss=kIDR·IDR=3·hdisk/r0·hparticle·ρ·IDR(r0≥30 µm, hparticle=30 µm)
In these equations kIDR is the IDR rate constant, which accounts for the solvent kinematic viscosity, rotational speed of the compressed disk, diffusion coefficient, particle size and API density. Therefore, kIDR corrects for differences in experimental conditions that influence the measured IDR value. The ABL thickness of the rotating disk (hdisk) can be estimated according to Equation (11):(11) hdisk=4.98·ν^1/6·D^1/3·RPM^−1/2 where ν is the solvent kinematic viscosity and the stirring rate is expressed as revolutions per minute (RPM). When kdiss is based on the IDR, two modified Dn equations result (Equations (12) and (13)):(12) Dn=3·hdisk/r0^2·ρ·IDR·Tsi(r0<30 µm, hparticle=r0) (13) Dn=3·hdisk/r0·hparticle·ρ·IDR·Tsi(r0≥30 µm, hparticle=30 µm)
The rDCS dissolution rate analysis was conducted according to Rosenberger et al.. For this, kdiss based on the IDR for a standard particle size of 100 µm was calculated (Equation (15)) and compared to kperm (Equation (10)). The kinematic viscosity of the medium (0.00696 cm^2/s), aqueous diffusion coefficient (predicted with ADMET Predictor version 9), stirring rate (100 rpm), initial particle size (100 µm), API density (predicted with ACD/Labs Release 2021.1.2), and measured IDR were used to calculate kdiss. Predicted diffusion coefficients and API densities can be found in Supplementary Materials. The estimated Peff, degree of flatness (1.7) and small intestinal radius (2 cm) were used for the calculation of kperm.

[5] = cited from earlier work
[6] = method not disclosed; cited from earlier work
[7] = from estimated Peff, DF 1.7, Rsi 2 cm

SMILES | solubility thermodynamic at 24 h [1] | theoretical IDR (Levich equation with CS as input) [2] | SLAD (solubility-limited absorbable dose) [3] | kdiss [4] | kperm [4, 7] | Literature pKa ([5]; basic pKa, method not disclosed) | Literature pKa ([5]; estimated by capillary electrophoresis) | Literature logP [6] | solubility at 24 h ([1]; pH 6.5, Excel template input, FaSSIF V1, read-out: Estimate of intestinal solubility (CS)) | kdiss for r = 100 µm ([4]; Excel template) | kperm ([4]; Excel template) | Literature pKa ([5]; basic pKa, triazole moiety, method not disclosed)
CCn1c(=O)c2c(nc(/C=C/c3ccc(OC)c(OC)c3)n2C)n(CC)c1=O [Istradefylline, istradefylline] | 0.00359 ± 5e-05 mg/mL (≈ 9.34 µM) | 0.346 ± 0.005 µg/min/cm^2 | 8.50 mg | 4.55e-07 s⁻¹ | 0.0238 min⁻¹ | 0.78 ^3 [31, 34] |  |  |  |  |  | 
Cc1ncc(OC[C@@]2(c3cccc(F)c3)C[C@H]2C(=O)Nc2ccc(F)cn2)c(C)n1 [Lemborexant, lemborexant] | 0.0233 ± 0.0001 mg/mL (≈ 56.8 µM) | 2.24 ± 0.01 µg/min/cm^2 | 49.6 mg | 3e-06 s⁻¹ | 0.0214 min⁻¹ |  | <3.50 [33] | 3.70 [33] |  |  |  | 
C[C@@H](c1ncncc1F)[C@](O)(Cn1cncn1)c1ccc(F)cc1F [Voriconazole, voriconazole] | 0.827 ± 0.006 mg/mL (≈ 2370 µM) |  | 1810 mg | 0.000126 s⁻¹ | 0.0219 min⁻¹ |  |  | 1.80 [32] | 0.827 mg/mL (≈ 2370 µM) | 0.000126 s⁻¹ | 0.02193 min⁻¹ | 1.76 ^3 [32]
